Assay results from PubChem BioAssay AID1963963 (Molecular Pharmacology Branch, DTP, NCI, 2024).

Tested on: 958667-338-R-J2-PDC tumor spheroids viability
Experiment: Anticancer human tumor 958667-338-R-J2-PDC patient-derived colon adenocarcinoma cell line growth inhibition [PI3K]
Conditions: spheroids with HUVEC and MSC; for IC50: curve of first compound; for viability, T/C: stronger effect = lower value
In short: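 Tumor cells were combined with HUVEC and MSCs into spheroids, then dosed with PI3K-inhibitor combinations over half-log ranges capped near clinical Cmax or 10 microM.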

[1] = second compound 0.0316 µM, first compound 0.0316 µM
[2] = second compound 0.0316 µM, first compound 0.1 µM
[3] = second compound 0.0316 µM, first compound 0.316 µM
[4] = second compound 0.0316 µM, first compound 1 µM
[5] = second compound 0.0316 µM, first compound 3.16 µM
[6] = second compound 0.0316 µM, first compound 10 µM
[7] = second compound 0.1 µM, first compound 0.0316 µM
[8] = second compound 0.1 µM, first compound 0.1 µM
[9] = second compound 0.1 µM, first compound 0.316 µM
[10] = second compound 0.1 µM, first compound 1 µM
[11] = second compound 0.1 µM, first compound 3.16 µM
[12] = second compound 0.1 µM, first compound 10 µM
[13] = second compound 0.316 µM, first compound 0.0316 µM
[14] = second compound 0.316 µM, first compound 0.1 µM
[15] = second compound 0.316 µM, first compound 0.316 µM
[16] = second compound 0.316 µM, first compound 1 µM
[17] = second compound 0.316 µM, first compound 3.16 µM
[18] = second compound 0.316 µM, first compound 10 µM
[19] = second compound 1 µM, first compound 0.0316 µM
[20] = second compound 1 µM, first compound 0.1 µM
[21] = second compound 1 µM, first compound 0.316 µM
[22] = second compound 1 µM, first compound 1 µM
[23] = second compound 1 µM, first compound 3.16 µM
[24] = second compound 1 µM, first compound 10 µM
[25] = second compound 3.16 µM, first compound 0.0316 µM
[26] = second compound 3.16 µM, first compound 0.1 µM
[27] = second compound 3.16 µM, first compound 0.316 µM
[28] = second compound 3.16 µM, first compound 1 µM
[29] = second compound 3.16 µM, first compound 3.16 µM
[30] = second compound 3.16 µM, first compound 10 µM
[31] = second compound 10 µM, first compound 0.0316 µM
[32] = second compound 10 µM, first compound 0.1 µM
[33] = second compound 10 µM, first compound 0.316 µM
[34] = second compound 10 µM, first compound 1 µM
[35] = second compound 10 µM, first compound 3.16 µM
[36] = second compound 10 µM, first compound 10 µM
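Further: spheroids exposed to compounds for seven days before readout.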

`CC1(C)CCC(CN2CCN(c3ccc(C(=O)NS(=O)(=O)c4ccc(NCC5CCOCC5)c([N+](=O)[O-])c4)c(Oc4cnc5[nH]ccc5c4)c3)CC2)=C(c2ccc(Cl)cc2)C1` + Cc1nc(NC(=O)N2CCCC2C(N)=O)sc1-c1ccnc(C(C)(C)C(F)(F)F)c1 was tested. Which IC50 (second compound 0.0316 µM) did it give?
Its IC50 is 7.01 µM.

And the IC50 (second compound 0.1 µM)?
The IC50 was 6.73 µM.

And the IC50 (second compound 0.316 µM)?
The IC50 was 6.72 µM.

What about the IC50 (second compound 1 µM) of the same molecule?
Its IC50 is 6.91 µM.

And the IC50 (second compound 3.16 µM)?
Its IC50 is 5.32 µM.

What about the IC50 (second compound 10 µM) of the same molecule?
Its IC50 is 4.21 µM.

And the viability, T/C [1]?
Its viability, T/C is 88.8%.

And the viability, T/C [2]?
Its viability, T/C is 95%.

What about the viability, T/C [3] of the same molecule?
The viability, T/C was 83.5%.

And the viability, T/C [4]?
Its viability, T/C is 123%.

What about the viability, T/C [5] of the same molecule?
The viability, T/C was 97.1%.

And the viability, T/C [6]?
Its viability, T/C is 29.1%.

What about the viability, T/C [7] of the same molecule?
Its viability, T/C is 90.4%.

What about the viability, T/C [8] of the same molecule?
The viability, T/C was 93.2%.

What about the viability, T/C [9] of the same molecule?
Its viability, T/C is 99.4%.

And the viability, T/C [10]?
Its viability, T/C is 99.8%.

What about the viability, T/C [11] of the same molecule?
Its viability, T/C is 107%.

What about the viability, T/C [12] of the same molecule?
The viability, T/C was 24.8%.

What about the viability, T/C [13] of the same molecule?
The viability, T/C was 93.3%.

And the viability, T/C [14]?
The viability, T/C was 85.8%.

What about the viability, T/C [15] of the same molecule?
The viability, T/C was 104%.

And the viability, T/C [16]?
Its viability, T/C is 99%.

And the viability, T/C [17]?
The viability, T/C was 98.5%.

And the viability, T/C [18]?
The viability, T/C was 25.7%.

What about the viability, T/C [19] of the same molecule?
Its viability, T/C is 88.9%.

What about the viability, T/C [20] of the same molecule?
The viability, T/C was 72.6%.

What about the viability, T/C [21] of the same molecule?
The viability, T/C was 93.3%.

And the viability, T/C [22]?
Its viability, T/C is 87.6%.

And the viability, T/C [23]?
The viability, T/C was 91.1%.

And the viability, T/C [24]?
The viability, T/C was 32.5%.

What about the viability, T/C [25] of the same molecule?
Its viability, T/C is 89.3%.

What about the viability, T/C [26] of the same molecule?
Its viability, T/C is 76.8%.

What about the viability, T/C [27] of the same molecule?
The viability, T/C was 67%.

And the viability, T/C [28]?
Its viability, T/C is 76.5%.

What about the viability, T/C [29] of the same molecule?
Its viability, T/C is 66.6%.

What about the viability, T/C [30] of the same molecule?
The viability, T/C was 31.4%.

And the viability, T/C [31]?
Its viability, T/C is 65.7%.

And the viability, T/C [32]?
Its viability, T/C is 64.6%.

And the viability, T/C [33]?
Its viability, T/C is 55.8%.

What about the viability, T/C [34] of the same molecule?
The viability, T/C was 61.5%.

And the viability, T/C [35]?
Its viability, T/C is 65.7%.

What about the viability, T/C [36] of the same molecule?
Its viability, T/C is 12%.

`CCCS(=O)(=O)Nc1ccc(F)c(C(=O)c2c[nH]c3ncc(-c4ccc(Cl)cc4)cc23)c1F` + Cc1nc(NC(=O)N2CCCC2C(N)=O)sc1-c1ccnc(C(C)(C)C(F)(F)F)c1 was tested. Which IC50 (second compound 0.0316 µM) did it give?
The IC50 was 5.75 µM.

What about the IC50 (second compound 0.1 µM) of the same molecule?
Its IC50 is 5.49 µM.

What about the IC50 (second compound 0.316 µM) of the same molecule?
The IC50 was 5.17 µM.

What about the IC50 (second compound 1 µM) of the same molecule?
The IC50 was 6.58 µM.

What about the IC50 (second compound 3.16 µM) of the same molecule?
The IC50 was 4.64 µM.

What about the IC50 (second compound 10 µM) of the same molecule?
The IC50 was 4.35 µM.

And the viability, T/C [1]?
Its viability, T/C is 106%.

And the viability, T/C [2]?
Its viability, T/C is 87.6%.

What about the viability, T/C [3] of the same molecule?
Its viability, T/C is 89.8%.

And the viability, T/C [4]?
The viability, T/C was 86.1%.

And the viability, T/C [5]?
The viability, T/C was 111%.

What about the viability, T/C [6] of the same molecule?
Its viability, T/C is 7.09%.

And the viability, T/C [7]?
The viability, T/C was 96.3%.

And the viability, T/C [8]?
Its viability, T/C is 91.9%.

And the viability, T/C [9]?
Its viability, T/C is 82.2%.

What about the viability, T/C [10] of the same molecule?
The viability, T/C was 77.2%.

What about the viability, T/C [11] of the same molecule?
Its viability, T/C is 90.2%.

And the viability, T/C [12]?
The viability, T/C was 9.01%.

What about the viability, T/C [13] of the same molecule?
Its viability, T/C is 90.7%.

And the viability, T/C [14]?
The viability, T/C was 78.6%.

What about the viability, T/C [15] of the same molecule?
Its viability, T/C is 70.8%.

And the viability, T/C [16]?
Its viability, T/C is 77.7%.

What about the viability, T/C [17] of the same molecule?
Its viability, T/C is 85.5%.

What about the viability, T/C [18] of the same molecule?
Its viability, T/C is 8.6%.

What about the viability, T/C [19] of the same molecule?
Its viability, T/C is 79.5%.

And the viability, T/C [20]?
The viability, T/C was 84.5%.

What about the viability, T/C [21] of the same molecule?
Its viability, T/C is 86%.

And the viability, T/C [22]?
The viability, T/C was 70.8%.

What about the viability, T/C [23] of the same molecule?
Its viability, T/C is 80.5%.

What about the viability, T/C [24] of the same molecule?
Its viability, T/C is 32.7%.

What about the viability, T/C [25] of the same molecule?
The viability, T/C was 57%.

And the viability, T/C [26]?
Its viability, T/C is 66.4%.

What about the viability, T/C [27] of the same molecule?
The viability, T/C was 75.9%.

What about the viability, T/C [28] of the same molecule?
Its viability, T/C is 49.3%.

What about the viability, T/C [29] of the same molecule?
Its viability, T/C is 74.3%.

What about the viability, T/C [30] of the same molecule?
The viability, T/C was 20.7%.

And the viability, T/C [31]?
The viability, T/C was 58.1%.

And the viability, T/C [32]?
Its viability, T/C is 66.9%.

And the viability, T/C [33]?
The viability, T/C was 60.8%.

And the viability, T/C [34]?
The viability, T/C was 67.9%.

What about the viability, T/C [35] of the same molecule?
Its viability, T/C is 74.1%.

What about the viability, T/C [36] of the same molecule?
Its viability, T/C is 9.34%.
